From ChEMBL document CHEMBL1154288, “The discovery and unique pharmacological profile of RO4938581 and RO4882224 as potent and selective GABAA alpha5 inverse agonists for the treatment of cognitive dysfunction” (Bioorg Med Chem Lett, 2009)
Calls of active or inactive are those of the source. The rule behind the calls is not given here.

Legend:
[1] = target: GABA A receptor alpha-2/beta-2/gamma-2 (Rattus norvegicus) (UniProt P18508+P23576+P63138); experiment: Inverse agonist activity at rat GABA alpha-2-beta-3-gamma-2 receptor expressed in HEK293 cells by electrophysiology assay relative to GABA; type: functional, cell-based
[2] = target: T1, GABA-A receptor; alpha-1/beta-3/gamma-2 (Homo sapiens, UniProt P14867+P18507+P28472); experiment: Displacement of [3H]Flumazenil from cloned human GABA alpha-1-beta-3-gamma-2 receptor expressed in HEK293 cells; type: cell-based
T1 sequence (P14867 whole entry): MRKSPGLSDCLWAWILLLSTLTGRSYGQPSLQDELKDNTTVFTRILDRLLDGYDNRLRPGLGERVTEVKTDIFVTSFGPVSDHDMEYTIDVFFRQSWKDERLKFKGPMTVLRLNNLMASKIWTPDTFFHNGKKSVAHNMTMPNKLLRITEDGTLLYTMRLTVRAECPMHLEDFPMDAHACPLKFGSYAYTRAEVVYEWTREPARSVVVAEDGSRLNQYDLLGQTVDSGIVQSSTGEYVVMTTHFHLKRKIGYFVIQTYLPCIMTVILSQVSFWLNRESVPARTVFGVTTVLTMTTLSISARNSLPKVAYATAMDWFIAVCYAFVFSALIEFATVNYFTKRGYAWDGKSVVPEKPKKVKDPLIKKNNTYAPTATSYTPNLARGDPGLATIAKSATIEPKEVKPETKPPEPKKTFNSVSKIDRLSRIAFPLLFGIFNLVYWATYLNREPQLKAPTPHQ
T1 sequence (P18507 whole entry): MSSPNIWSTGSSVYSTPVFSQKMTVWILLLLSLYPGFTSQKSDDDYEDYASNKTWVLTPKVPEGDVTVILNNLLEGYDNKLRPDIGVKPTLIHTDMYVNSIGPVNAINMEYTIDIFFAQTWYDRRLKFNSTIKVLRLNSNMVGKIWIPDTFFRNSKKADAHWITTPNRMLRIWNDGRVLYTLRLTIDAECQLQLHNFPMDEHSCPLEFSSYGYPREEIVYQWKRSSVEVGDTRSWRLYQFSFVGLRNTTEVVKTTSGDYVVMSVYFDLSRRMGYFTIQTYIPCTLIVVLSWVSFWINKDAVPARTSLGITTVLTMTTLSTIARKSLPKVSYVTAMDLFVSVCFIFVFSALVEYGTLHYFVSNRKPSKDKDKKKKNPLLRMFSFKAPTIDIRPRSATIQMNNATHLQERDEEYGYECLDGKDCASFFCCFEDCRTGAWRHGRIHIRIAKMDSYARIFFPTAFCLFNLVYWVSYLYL
T1 sequence (P28472 whole entry): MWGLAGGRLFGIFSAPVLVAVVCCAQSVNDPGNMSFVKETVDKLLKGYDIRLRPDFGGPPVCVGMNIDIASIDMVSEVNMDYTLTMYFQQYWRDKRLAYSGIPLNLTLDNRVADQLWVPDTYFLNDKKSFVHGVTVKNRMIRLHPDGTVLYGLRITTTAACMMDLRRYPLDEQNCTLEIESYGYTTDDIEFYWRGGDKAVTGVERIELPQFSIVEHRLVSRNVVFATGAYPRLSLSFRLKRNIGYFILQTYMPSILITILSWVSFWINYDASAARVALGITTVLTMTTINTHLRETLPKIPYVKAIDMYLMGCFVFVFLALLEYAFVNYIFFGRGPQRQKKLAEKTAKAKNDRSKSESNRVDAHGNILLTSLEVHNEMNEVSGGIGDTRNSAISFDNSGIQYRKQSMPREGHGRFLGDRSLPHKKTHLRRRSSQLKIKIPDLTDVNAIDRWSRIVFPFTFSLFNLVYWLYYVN

[3] = target: T2, GABA-A receptor; alpha-5/beta-3/gamma-2 (Homo sapiens, UniProt P18507+P28472+P31644); experiment: Displacement of [3H]Flumazenil from cloned human GABA alpha-5-beta-3-gamma-2 receptor expressed in HEK293 cells; type: cell-based
T2 sequence (P18507 whole entry): T1 sequence (P18507 whole entry)
T2 sequence (P28472 whole entry): T1 sequence (P28472 whole entry)
T2 sequence (P31644 whole entry): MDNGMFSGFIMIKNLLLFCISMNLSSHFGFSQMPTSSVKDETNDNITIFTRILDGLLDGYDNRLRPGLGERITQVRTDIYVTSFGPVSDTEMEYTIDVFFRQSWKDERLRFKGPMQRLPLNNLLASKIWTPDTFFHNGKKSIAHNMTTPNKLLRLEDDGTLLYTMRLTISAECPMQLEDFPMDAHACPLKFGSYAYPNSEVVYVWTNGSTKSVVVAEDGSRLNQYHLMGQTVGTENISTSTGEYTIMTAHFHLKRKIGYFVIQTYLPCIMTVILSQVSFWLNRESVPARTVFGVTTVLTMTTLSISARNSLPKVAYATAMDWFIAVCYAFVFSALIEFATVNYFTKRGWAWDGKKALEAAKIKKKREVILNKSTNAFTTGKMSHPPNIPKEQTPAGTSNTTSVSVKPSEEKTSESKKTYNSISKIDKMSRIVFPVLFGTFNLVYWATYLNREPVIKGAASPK

Rattus norvegicus [4] = experiment: Behavioral effect in Lister hooded rat assessed as reversal of scopolamine-induced working memory impairment at 1 mg/kg, po by delayed match to position task method; type: functional, organism-based; set-up: dose 1 mg/kg
Rattus norvegicus [5] = experiment: Behavioral effect in Lister hooded rat assessed as reversal of scopolamine-induced working memory impairment at 1 mg/kg, po after 24 seconds by delayed match to position task method; type: functional, organism-based; set-up: dose 1 mg/kg
[6] = target: GABA-A receptor; alpha-5/beta-3/gamma-2 (Homo sapiens) (UniProt P18507+P28472+P31644); experiment: Inverse agonist activity at human GABA alpha-5-beta-3-gamma-2 receptor expressed in Xenopus laevis oocyts by electrophysiology assay relative to GABA; type: functional
Rattus norvegicus [7] = experiment: Behavioral effect in Lister hooded rat assessed as reversal of scopolamine-induced working memory impairment at 1 mg/kg, po after 16 seconds by delayed match to position task method; type: functional, organism-based; set-up: dose 1 mg/kg
Rattus norvegicus [8] = organism: Rattus norvegicus; experiment: Anxiogenic activity in Lister hooded rat by social approach avoidance test; type: functional, organism-based
Rattus norvegicus [9] = experiment: Behavioral effect in Lister hooded rat assessed as reversal of scopolamine-induced working memory impairment at 0.1 mg/kg, po after 24 seconds by delayed match to position task method; type: functional, organism-based; set-up: dose 0.1 mg/kg
Cynomolgus monkey = experiment: Behavioral effect in cynomolgus monkey assessed as improved executive function at 3 to10 mg/kg, po by object retrieval task method; type: functional, organism-based; conditions: Macaca fascicularis
Rattus norvegicus [10] = experiment: Behavioral effect in Lister hooded rat assessed as inhibition of diazepam-induced spartial learning impairment at 1 to 10 mg/kg, po by delayed match to position task method; type: functional, organism-based
Rattus norvegicus [11] = experiment: Behavioral effect in Lister hooded rat assessed as reversal of scopolamine-induced working memory impairment at 0.3 to 1 mg/kg, po by delayed match to position task method; type: functional, organism-based
Rattus norvegicus [12] = organism: Rattus norvegicus; experiment: Anxiogenic activity in Lister hooded rat by elevated plus maze test; type: functional, organism-based
Mus musculus = organism: Mus musculus; experiment: Anticonvulsive activity in mouse audiogenic seizure model; type: functional, organism-based

SMILES	Efficacy [1] [%]	Ki [2] [nM]	Ki [3] [nM]	Activity (Rattus norvegicus [4])	Activity (Rattus norvegicus [5])	Activity [6]	Activity (Rattus norvegicus [7])	Activity (Rattus norvegicus [8])	Activity (Rattus norvegicus [9])	Activity (Cynomolgus monkey)	Activity (Rattus norvegicus [10])	Activity (Rattus norvegicus [11])	Activity (Rattus norvegicus [12])	Activity (Mus musculus)
Cc1ncn2c1Cn1ncnc1-c1cc(Cl)ccc1-2	-2	18	3											
Clc1ncn2c1Cn1ncnc1-c1cc(Br)ccc1-2	-25	33	1.4											
Clc1ccc2c(c1)-c1ncnn1Cc1c(Cl)ncn1-2	-9	15	2	inactive	Active	Active	Active							
FC(F)c1ncn2c1Cn1ncnc1-c1cc(Br)ccc1-2	-4	174	4.6					inactive	Active	Active	Active	Active	inactive	inactive
